We go through 22 molecules from patent publication US7368470B2, “Substituted 3-pyrrolidine-indole derivatives” (Gruenenthal GmbH, priority 2003, dated 2008).

The structures appear in SMILES notation.

For test [1], the target named is T1, noradrenalin reuptake (NA uptake) (Rattus norvegicus, UniProt Q9WTR4).
T1 construct: These vesicular particles were isolated from the hypothalamus of male rats' brains for NA uptake; from tissue; host or cells: rat brain synaptosomes (P2 fraction; cerebral cortex / hypothalamus of male rats)
T1 sequence (Q9WTR4 1-597): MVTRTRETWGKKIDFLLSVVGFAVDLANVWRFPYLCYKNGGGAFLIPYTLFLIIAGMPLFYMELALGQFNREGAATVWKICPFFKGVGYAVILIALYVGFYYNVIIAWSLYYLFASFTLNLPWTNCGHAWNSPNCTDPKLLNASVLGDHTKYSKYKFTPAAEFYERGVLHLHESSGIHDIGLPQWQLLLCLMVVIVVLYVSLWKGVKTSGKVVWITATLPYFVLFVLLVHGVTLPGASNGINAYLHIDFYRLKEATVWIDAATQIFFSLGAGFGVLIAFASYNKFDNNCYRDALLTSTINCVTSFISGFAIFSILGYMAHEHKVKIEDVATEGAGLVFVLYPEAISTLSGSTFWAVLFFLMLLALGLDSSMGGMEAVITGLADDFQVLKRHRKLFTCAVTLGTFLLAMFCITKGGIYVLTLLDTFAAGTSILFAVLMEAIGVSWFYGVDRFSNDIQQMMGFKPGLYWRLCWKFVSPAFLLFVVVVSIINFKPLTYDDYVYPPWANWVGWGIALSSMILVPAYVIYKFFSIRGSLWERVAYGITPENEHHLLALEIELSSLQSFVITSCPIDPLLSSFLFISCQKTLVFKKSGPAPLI
As to the kind of experiment: Noradrenalin reuptake inhibition (NA uptake inhibition) in rat brain synaptosomes. The test is classed as biochemical. The note with it: synaptosomes from male rats' brains. From the text:
b) Tests on Noradrenalin Reuptake Inhibition
In order to be able to carry out these in vitro studies, synaptosomes from rats' cerebral cortices were freshly isolated. A “P2” fraction, prepared according to Gray and Whittaker's instructions (E. G. Gray and V. P. Whittaker (1962) J. Anat. 76, 79-88) was used in each case. These vesicular particles were isolated from the hypothalamus of male rats' brains for NA uptake.
A detailed description of the method may be found in the literature (M. Ch. Frink, H.-H. Hennies, W. Englberger, M. Haurand and B. Wilffert (1996) Arzneim.-Frosch./Drug Res. 46 (III), 11, 1029-1036).

Test [2] concerns the target T2, serotonin reuptake (5HT uptake) (Rattus norvegicus, UniProt P31652).
T2 construct: These vesicular particles were isolated from the hypothalamus of male rats' brains for 5HT uptake; from tissue; host or cells: rat brain synaptosomes (P2 fraction; cerebral cortex / hypothalamus of male rats)
As to the kind of experiment: Serotonin reuptake inhibition (5HT uptake inhibition) in rat brain synaptosomes. The test is classed as biochemical. The conditions noted are these: synaptosomes from male rats' brains. From the text: a) Tests on Serotonin Reuptake Inhibition
In order to be able to carry out these in vitro studies, synaptosomes from rats' cerebral cortices were freshly isolated. A “P2” fraction prepared according to Gray and Whittaker's instructions (E. G. Gray and V. P. Whittaker (1962) J. Anat. 76, 79-88) was used in each case. These vesicular particles were isolated from the hypothalamus of male rats' brains for 5HT uptake.
A detailed description of the method may be found in the literature (M. Ch. Frink, H.-H. Hennies, W. Englberger, M. Haurand and B. Wilffert (1996) Arzneim.-Forsch./Drug Res. 46 (III), 11, 1029-1036).

Test [3] deals with binding site 2 of the sodium channel (batrachotoxin (BTX) binding site). The experiment in a line: Binding test on the sodium channel, binding site 2 (BTX bond), [3H]-batrachotoxinin A20 α-benzoate as ligand. The note with it: 10 μM; rat cerebrocortex synaptosomes; ligand 10 nM; 25° C., 120 min. Details: species or system rat.

One may read the inhibition as the relative decrease from the control value, in per cent.

T2 sequence (P31652 whole entry): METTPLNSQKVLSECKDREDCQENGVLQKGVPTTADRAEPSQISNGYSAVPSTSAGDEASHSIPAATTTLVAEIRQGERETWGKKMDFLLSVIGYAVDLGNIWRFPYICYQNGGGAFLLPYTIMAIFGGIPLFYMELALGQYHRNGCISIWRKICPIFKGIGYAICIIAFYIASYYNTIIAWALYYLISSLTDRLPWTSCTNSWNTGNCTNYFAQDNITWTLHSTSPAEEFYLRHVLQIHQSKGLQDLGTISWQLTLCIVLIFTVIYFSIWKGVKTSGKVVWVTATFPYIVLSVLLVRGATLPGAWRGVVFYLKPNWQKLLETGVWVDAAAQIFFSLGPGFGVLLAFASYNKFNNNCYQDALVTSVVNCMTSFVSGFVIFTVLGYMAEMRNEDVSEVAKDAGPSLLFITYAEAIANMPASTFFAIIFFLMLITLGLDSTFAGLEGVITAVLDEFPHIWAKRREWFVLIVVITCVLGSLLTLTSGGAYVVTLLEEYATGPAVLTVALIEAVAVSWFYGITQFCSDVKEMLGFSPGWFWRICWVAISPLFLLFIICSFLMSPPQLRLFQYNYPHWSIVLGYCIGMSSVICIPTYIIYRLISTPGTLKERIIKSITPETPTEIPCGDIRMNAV

Consider `N#Cc1ccc(Cn2cc(C3CCN(C(=O)c4ccc5nonc5c4)C3)c3ccccc32)cc1` (stereo not drawn) [Compound 34, 4-{3-[1-(benzo[1,2,5]oxadiazole-5-carbonyl)-pyrrolidin-3-yl]-indol-1-ylmethyl}-benzonitrile], for which the inhibition at 10 µM amounted to 49% in test [1] and 57% in test [2]. Further, the “BTX bond, % inhibition [10 μM]” value in test [3] turned out to be 91%.
For `CCn1cc(C2CCN(C(=O)CCc3ccccc3)C2)c2ccccc21` (stereo not drawn) [Compound 35, 1-[3-(1-ethyl-1H-indol-3-yl)-pyrrolidin-1-yl]-3-phenyl-propan-1-one], the inhibition at 10 µM in test [1] is 48%; in test [2] it was 68%. Further, the “BTX bond, % inhibition [10 μM]” value in test [3] turned out to be 84%.
For `Cn1cc(C2CCN(C(=O)C=Cc3ccccc3)C2)c2ccccc21` (stereo not drawn) [Compound 26, 1-[3-(1-methyl-1H-indol-3-yl)-pyrrolidin-1-yl]-3-phenyl-propenone], the “NA-uptake, inhibition [10 μM]” value in test [1] is 44. In addition, the “5HT uptake, % inhibition [10 μM]” value in test [2] came out at 62%. Also, the “BTX bond, % inhibition [10 μM]” value in test [3] is on record as 93%.
The molecule `CCn1cc(C2CCN(C(=O)c3cc(C(F)(F)F)ccc3Cl)C2)c2ccccc21` (stereo not drawn) [Compound 38, (2-chloro-5-trifluoromethyl-phenyl)-[3-(1-ethyl-1H-indol-3-yl)-pyrrolidin-1-yl]-methanone] displayed an inhibition at 10 µM in test [1] of 49%. Also, the “BTX bond, % inhibition [10 μM]” value in test [3] was 89%.
Regarding `Cn1cc(C2CCN(C(=O)c3cccnc3Cl)C2)c2ccccc21` (stereo not drawn) [Compound 40, (2-chloro-pyridin-3-yl)-[3-(1-methyl-1H-indol-3-yl)-pyrrolidin-1-yl]-methanone], the figures for the inhibition at 10 µM in test [1] and in test [2] were 43% and 66%, respectively.
In the same order, the values of `O=C(c1ccc(SC(F)(F)F)cc1)N1CCC(c2c[nH]c3ccccc23)C1` (stereo not drawn) [Compound 18, [3-(1H-indol-3-yl)-pyrrolidin-1-yl]-(4-trifluoromethylsulphanyl-phenyl)-methanone] are 49% and 49%.
As to `Cn1cc(C2CCN(C(=O)c3ccc(-c4ccccc4)cc3)C2)c2ccccc21` (stereo not drawn) [Compound 45, Biphenyl-4-yl-[3-(1-methyl-1H-indol-3-yl)-pyrrolidin-1-yl]-methanone], the values for the inhibition at 10 µM in test [1] and in test [2] were 43% and 80%, respectively. Besides, the “BTX bond, % inhibition [10 μM]” value in test [3] is recorded as 82%.
For `CCn1cc(C2CCN(C(=O)c3ccc(C(F)(F)F)cc3)C2)c2ccccc21` (stereo not drawn) [Compound 48, [3-(11-ethyl-1H-indol-3-yl)-pyrrolidin-1-yl]-(4-trifluoromethyl-phenyl)-methanone], the “NA-uptake, inhibition [10 μM]” value in test [1] is 40. Further, in test [2], the “5HT uptake, % inhibition [10 μM]” value is 43%.
As to `CSc1ncccc1C(=O)N1CCC(c2cn(C)c3ccccc23)C1` (stereo not drawn) [Compound 37, [3-(1-methyl-1H-indol-3-yl)-pyrrolidin-1-yl]-(2-methylsulphanyl-pyridin-3-yl)-methanone], the inhibition at 10 µM in test [1] is 43%; in test [2], 64%.
On to `COc1cccc(Cn2cc(C3CCN(C(=O)Cc4ccc(Cl)cc4)C3)c3ccccc32)c1` (stereo not drawn) [Compound 46, 2-(4-chloro-phenyl)-1-{3-[1-(3-methoxy-benzyl)-1H-indol-3-yl]-pyrrolidin-1-yl}-ethanone], for which the inhibition at 10 µM in test [1] worked out at 20%; in test [2], 46%. The “BTX bond, % inhibition [10 μM]” value in test [3] came out at 88%.
In the case of `CCn1cc(C2CCN(C(=O)c3cccnc3)C2)c2ccccc21` (stereo not drawn) [Compound 28], the “NA-uptake, inhibition [10 μM]” value in test [1] came to 52. Also, the “5HT uptake, % inhibition [10 μM]” value in test [2] is listed as 41%.
For the molecule `Cc1ccc(F)c(C(=O)N2CCC(c3cn(Cc4ccc(C#N)cc4)c4ccccc34)C2)c1Cl` (stereo not drawn) [Compound 31, 4-{3-[1-(2-chloro-6-fluoro-3-methyl-benzoyl)-pyrrolidin-3-yl]-indol-1-ylmethyl}-benzonitrile], the results for the inhibition at 10 µM in test [1] and in test [2] were 41% and 62%, respectively. Further, the “BTX bond, % inhibition [10 μM]” value in test [3] was 92%.
As to `CCn1cc(C2CCN(CC(=O)Nc3scc(C)c3C#N)C2)c2ccccc21` (stereo not drawn) [Compound 52, N-(3-cyano-4-methyl-thiophen-2-yl)-2-[3-(1-ethyl-1H-indol-3-yl)-pyrrolidin-1-yl]-acetamide], the inhibition at 10 µM in test [1] was determined as 54%; in test [2], 79%.
In the same order, the values of `COCC(=O)N1CCC(c2cn(Cc3cccc(OC)c3)c3ccccc23)C1` (stereo not drawn) [Compound 41, 2-methoxy-1-{3-[1-(3-methoxy-benzyl)-1H-indol-3-yl]-pyrrolidin-1-yl}-ethanone] are 43% and 44%.
For the molecule `O=C(c1ccc([N+](=O)[O-])cc1Cl)N1CCC(c2cn(Cc3cccc(F)c3)c3ccccc23)C1` (stereo not drawn) [Compound 20, (2-chloro-4-nitro-phenyl)-{3-[1-(3-fluoro-benzyl)-1H-indol-3-yl]-pyrrolidin-1-yl}-methanone], the inhibition at 10 µM in test [1] turned out to be 43%; in test [2] it was 89%. Moreover, the “BTX bond, % inhibition [10 μM]” value in test [3] came out at 91%.
As for `O=C(c1ccc([N+](=O)[O-])cc1Cl)N1CCC(c2cn(Cc3ccc(C(F)(F)F)cc3)c3ccccc23)C1` (stereo not drawn) [Compound 39], the “NA-uptake, inhibition [10 μM]” value in test [1] is given as 41. In addition, in test [2], the “5HT uptake, % inhibition [10 μM]” value is on record as 43%. For the same molecule, the “BTX bond, % inhibition [10 μM]” value in test [3] came to 90%.
As to `C#CCn1cc(C2CCN(C(=O)c3cccnc3SC)C2)c2ccccc21` (stereo not drawn) [Compound 44, (2-methylsulphanyl-pyridin-3-yl)-[3-(1-prop-2-inyl-1H-indol-3-yl)-pyrrolidin-1-yl]-methanone], in test [1], the “NA-uptake, inhibition [10 μM]” value is reported as 49. Further, the “5HT uptake, % inhibition [10 μM]” value in test [2] is recorded as 60%.
Regarding `Cc1nc(C(F)(F)F)ccc1C(=O)N1CCC(c2cn(Cc3cccc(F)c3)c3ccccc23)C1` (stereo not drawn) [Compound 42, {3-[1-(3-fluoro-benzyl)-1H-indol-3-yl]-pyrrolidin-1-yl}-(2-methyl-6-trifluoromethyl-pyridin-3-yl)-methanone], the inhibition at 10 µM stood at 58% in test [1] and 82% in test [2]. The “BTX bond, % inhibition [10 μM]” value in test [3] worked out at 96%.
Regarding `CN(C)C(=O)Cn1cc(C2CCN(C(=S)Nc3cccc(C(F)(F)F)c3)C2)c2ccccc21` (stereo not drawn) [Compound 16, N,N-dimethyl-2-{3-[1-(3-trifluoromethyl-phenylthiocarbamoyl)-pyrrolidin-3-yl]-indol-1-yl}-acetamide], the inhibition at 10 µM in test [1] turned out to be 50%.
Regarding `O=[N+]([O-])c1ccc(S(=O)(=O)N2CCC(c3c[nH]c4ccccc34)C2)cc1` (stereo not drawn) [Compound 24, 3-[1-(4-nitro-benzenesulphonyl)-pyrrolidin-3-yl]-1H-indole], the inhibition at 10 µM in test [1] turned out to be 59%; in test [2], 53%.
As to `CC#CCn1cc(C2CCN(CC(=O)Nc3cc(C)nn3C)C2)c2ccccc21` (stereo not drawn) [Compound 49, 2-[3-(1-but-2-ynyl-1H-indol-3-yl)-pyrrolidin-1-yl]-N-(2,5-dimethyl-2H-pyrazol-3-yl)-acetamide], the values for the inhibition at 10 µM in test [1] and in test [2] were 100% and 68%, respectively.
As to `CCn1cc(C2CCN(C(=O)c3c(-c4ccccc4Cl)noc3C)C2)c2ccccc21` (stereo not drawn) [Compound 32, [3-(2-chloro-phenyl)-5-methyl-isoxazol-4-yl]-[3-(1-ethyl-1H-indol-3-yl)-pyrrolidin-1-yl]-methanone], the inhibition at 10 µM in test [1] is 44%.
